Test results reported in patent US20210283035A1, “AN ANTIMICROBIAL COMPOSITION” (Conopco, Inc., d/b/a UNILEVER, priority 2016, published 2021).

Test system: Malassezia furfur
Assay: ΣFIC assay against Malassezia furfur (in-vitro susceptibility testing, alamar blue)
Type: cell-based
Settings: CBS1878, active alone, M. furfur CBS 1878 in Pityrosporum Broth, 32° C., complete growth inhibition by alamar blue, read-out: Minimum Inhibition Concentration (MIC)
Method: A brief description of the method is given below.
Methods: ΣFIC Assay Against Malassezia furfur
They are then incubated at 32° C. for 48 hrs with shaking. Then, 1 ml of the first broth culture is transferred into 9 ml of fresh PB and incubated at 32° C. for 48 hrs with shaking. The final culture should contain 2 to 6×10^6 cells/ml. This is achieved by diluting using PB to 5*10^5 cell/ml.
Binary combinations of ZPTO and the testing compound were prepared in 96-well plate by mixing 20 μl of zinc pyrithione solution with 20 μl of testing compound. The solution in each well were further mixed with 160 μl of PB and 20 μl of M. furfur. The final cell density in the testing plate is around 5*10^4 cell/ml, and the final concentration of actives in each well of the 96-wel plate were shown below.
The plate was incubated at 32° C. for one day. Then 20 μl of alamar blue (0.01%) was added into each well with a further incubation for one day to observe the color change. Red color indicates microbial growth and the non-changing blue color indicates no growth.
The MIC is defined as the absolute lowest concentration of active that provides complete microbial growth inhibition as indicated by the blue color of alamar blue under the tested condition. […]

| MIC | SMILES |
| --- | --- |
| 1000 µg/mL | O=C(c1ccc(O)cc1O)c1ccc(O)cc1O [benzophenone-2] |
| 500 µg/mL | O=C(c1ccccc1)c1ccc(O)cc1O [benzophenone-1] |
